Measurements taken from US20250195508A1, “COMPOUNDS AND COMPOSITIONS FOR ANITMALARIAL THERAPEUTIC AND PROPHYLACTIC USE” (UNIVERSITY OF CENTRAL FLORIDA RESEARCH FOUNDATION, INC., priority 2022, published 2025).
Read-outs that look alike come from different tables or passages of the source.

Assays:
[1] = test system: Pb-Luc sporozoites; experiment: Therapeutic assay, 4-day Peters test against Pb-Luc sporozoites; type: in vivo, mice; details: 4 doses of 15 mg/kg at 6, 18, 30, 42 hours post infection
Procedure: (§1) TL5-135 was dissolved or resuspended in a suspending vehicle consisting of 30% DMSO, 1% methylcellulose, 0.5% TWEEN-80, and 68.5% ultrapure water. GNF179 was resuspended in 30% DMSO, 30% PEG400, 5% TWEEN-80, 35% saline, and administered intravenously.
(§2) For prophylaxis assays, a single dose of […] was administrated 6 hours before infection. For therapeutic assays, in a 4-day's Peters test, 4 doses (each 15 mg/kg) were administrated 6, 18, 30, and 42 hours post infection.
(§3) The antimalarial activity was measured as a percent reduction in parasitemia from day one until day twelve post-infection.
However, the mice treated with TL5-135 as a therapeutic had about 2.4% parasitemia after 12 days post-infection (all negative control mice died between days 11-13). The parasitemia on day 21 (21 days post-infection) for the group of mice was 35%.
(§4) Groups of 5 mice were infected with 100,000 Pb-Luc sporozoites by IV injection. Prophylactic (single dose of 50 mg/kg through IV injection, 6 hour before infection) and therapeutic (4-day Peters test, 4 doses of 15 mg/kg each time were administrated post-infection at 6, 18, 30, and 42 hours post infection (hpi) and the activity of the compounds was evaluated. See FIG. 8A. The parasitemia was estimated after flow cytometric enumeration of rodent malaria parasite Pb-Luc-infected red blood cells (RBS) stained with SYBR Green I, from day 3 until 20.
(§5) TL5-135 and GNF179 antimalarial compounds were tested against Pb-Luc sporozoites. Prophylactic activity (single dose of 15 mg/kg through an IV injection, 6 hours before infection) and therapeutic activity (4-day Peters test, 4 doses of 15 mg/kg each time was administrated at 6, 18, 30, and 42 hpi of the TL5-135 antimalarial compound was evaluated. As before, groups of five mice were infected with 100,000 Pb-Luc sporozoites by IV injection. The parasitemia was estimated after flow cytometric enumeration of rodent malaria parasite Pb-Luc-infected red blood cells (RBS) stained with SYBR Green I, from day 3 until day 20. See FIG. 8B.

[2] = test system: P. berghei luc sporozoites (Pb-Luc); experiment: Prophylaxis assay, single IV dose 6 hours before Pb-Luc sporozoite infection; type: in vivo, mice; details: single dose 15 mg/kg 6 hours before infection; after 22 days
Procedure: as §1, §2, §3
Infection was initiated using 100,000 P. berghei luc sporozoites (Pb-Luc). The drugs were administered IV at 50 mg/kg, single dose 6 hours prior. I: infected, UI: uninfected.
as §4, §5

[3] = test system: P. falciparum Dd2; experiment: 72 h SYBR Green I assay (Dd2 Proliferation Assay); type: cell-based
Procedure: Several analogs were synthesized based on the structure of TL5-135 for further study. […] For the data in Table 1, compounds were subjected to in vitro biochemical kinase assays done using recombinant human ephrin type-A receptor 2 (EPHA2) (expressed in insect cells) in a Z′-LYTE® FRET-based kinase assay. P. falciparum Dd2 EC50 was determined using the standard 72 hour SYBR Green I assay (Dd2 Proliferation Assay) as known in the art. […] The structures of compoundsTL5-134, TL5-139, and TL5-145 are shown below.
In vitro biochemical kinase assays were done using recombinant human EPHA2 (expressed in insect cells) in a Z′-LYTE® FRET-based kinase assay. P. falciparum Dd2 EC50 was determined using the standard 72 h SYBR Green I assay.
Asynchronous blood stage P. falciparum Dd2 cultures were plated at 1% parasitemia and 1% hematocrit in a 96-well plate and incubated with serial dilutions of compound for 72 hours at 37° C. in 5% CO2. DMSO concentrations were kept at a sub-lethal percentage (<0.2%). Five micromolar chloroquine was used as a negative parasite growth control. Plates were then frozen at −80° C. and thawed, and 100 μL SYBR Green I-containing lysis buffer (20 mM Tris-HCl, 5 mM EDTA, 0.8% Triton X-100, 0.08% saponin, and 0.0001% SYBR Green I) was added to the wells. After incubation for 45 minutes at room temperature protected from light, fluorescence emission was read with a multimode microplate reader, at 485 nm excitation and 530 nm emission. Results were normalized using untreated and chloroquine-treated controls, and EC50 was determined with CDD Vault.
To establish the utility of kinase inhibitor compounds synthesized in the Gray laboratory as a source of novel antimalarial activities, the libraries (containing 1,100 compounds) were screened using the well-established SYBR Green I-based fluorescence assay as known in the art. This screen yielded 34 compounds with EC50<500 nM in the CQ^R Dd2 strain. These hits were subjected to counter-screening against human HepG2 cells using CellTiter 96® AQueous (Promega™) MTS-based cell proliferation assay to identify asexual and liver stage antiplasmodial hits.
P. falciparum Dd2 EC50 was determined using SYBR Green I assay. For the selectivity index ([…]) cytotoxicity was determined using CellTiter 96® AQueous MTS. The liver stage assay was performed using P. berghei luciferase expressing parasites. All assays were performed with technical quadruplicates and 3 biological replicates. Assays have a Z′ factor >0.7.

[4] = test system: P. falciparum Dd2; experiment: Rate of killing assay; type: cell-based; details: 10×EC50, 12-hour exposure then wash off
Procedure: Asynchronous P. falciparum Dd2 cultures were plated at 1% parasitemia, 4% hematocrit into a 24-well plate, incubated at 37° C. in 5% CO2. Wells were treated with 10×EC50 of compound for 12, 24, or 48 hours before the compound was removed. Every 24 hours thereafter for 4 days total, culture samples were washed in 0.5% BSA and stained with 1×SYBR Green I and 60 μM MitoTracker Deep Red FM for 20 minutes at 37° C. After another wash in 0.5% BSA, samples were resuspended in PBS and analyzed via flow cytometry with a CytoFLEX S™, with 100,000 events recorded per sample. For gating, the following controls were used: uninfected RBCs, untreated culture, DHA-treated culture, and untreated culture without MitoTracker stain. Viable parasite percentage was determined by finding the fraction of SYBR Green/MitoTracker double positive cells from the total events. Analysis was performed with FlowJo software Version 10.
Asynchronous cultures of P. falciparum Dd2 parasites were treated with 10×EC50 of the indicated compound for 12 hours prior to compound wash off. Flow cytometry with SYBR Green I (nuclear dye) and Mitotracker Deep Red FM (mitochondria staining) was done after compound wash-off every 24 hours after for […] (100,000 events/sample) to track parasitemia (data from 3 biological replicates±SEM).

[5] = 72 hour SYBR Green I, Table 2, read-out: Dd2 EC50 (nM) ± SD
[6] = Plasmodium falciparum, DD2, 72 hour SYBR Green I, Table 2, read-out: Dd2 EC50 (nM) ± SD
[7] = Plasmodium falciparum, DD2, 72 h, read-out: Antiplasmodial Dd2 EC50 (nM) ± SD

SMILES	EC50 [3, 5] [nM]	further results
CC1(C)c2nc(-c3ccc(F)cc3)c(Nc3ccc(Cl)cc3)n2CCN1C(=O)CN [GNF179, reference compound]		Condition of mice after therapeutic treatment [1]: healthy and without parasites; Condition of mice after prophylactic treatment [2]: still healthy and alive
CCN1CCN(Cc2ccc(NC(=O)c3cc(Cl)cc(NC(=O)c4cncc(-c5ccco5)c4)c3)cc2C(F)(F)F)CC1 [LSW-03-006]	97.2 ± 23.3	
CCN1CCN(Cc2ccc(NC(=O)c3cc(Cl)cc(NC(=O)c4cncc(C)c4)c3)cc2C(F)(F)F)CC1 [LSW-03-007]	164 ± 14.7	
CCN1CCN(Cc2ccc(NC(=O)c3cc(Cl)cc(NC(=O)c4cccnc4)c3)cc2C(F)(F)F)CC1 [LSW-03-008]		EC50 [3, 6]: 407 ± 56 nM
CCN1CCN(Cc2ccc(NC(=O)c3cc(Cl)cc(NCc4cncc(-c5cccs5)c4)c3)cc2C(F)(F)F)CC1 [LSW-03-014]		EC50 [3, 6]: 315 ± 18.7 nM
CCN1CCN(Cc2ccc(NC(=O)c3cc(Cl)cc(NC(=O)c4cccc(-c5cccs5)c4)c3)cc2C(F)(F)F)CC1 [LSW-03-015]	314 ± 17.4	
CCN1CCN(Cc2ccc(NC(=O)c3cc(Cl)cc(NC(=O)c4cncc(-c5cccs5)c4)c3)cc2)CC1 [LSW-03-030]	99.6 ± 8.6	
O=C(Nc1cccc(C(F)(F)F)c1)c1cc(Cl)cc(NC(=O)c2cncc(-c3cccs3)c2)c1 [LSW-03-033]	422 ± 36	
CCN1CCN(Cc2ccc(NC(=O)c3cc(F)cc(NC(=O)c4cncc(-c5cccs5)c4)c3)cc2C(F)(F)F)CC1 [LSW-03-054]	99.5 ± 12.7	
CCN1CCN(Cc2ccc(NC(=O)c3cc(NC(=O)c4cncc(-c5cccs5)c4)cc(C(F)(F)F)c3)cc2C(F)(F)F)CC1 [LSW-03-055]	86.6 ± 2.92	
CCN1CCN(Cc2ccc(NC(=O)c3cc(NC(=O)c4cncc(-c5cccs5)c4)cc(Cl)c3F)cc2C(F)(F)F)CC1 [LSW-03-059]	104 ± 8.67	
CCN1CCN(Cc2ccc(NC(=O)c3cc(NC(=O)c4cncc(-c5cccs5)c4)ccc3F)cc2C(F)(F)F)CC1 [LSW-03-067]	867 ± 68.3	
CCN1CCN(Cc2ccc(NC(=O)c3cc(Br)cc(NC(=O)c4cncc(-c5cccs5)c4)c3)cc2C(F)(F)F)CC1 [LSW-03-071]	108 ± 9.08	
CCN1CCN(Cc2ccc(NC(=O)c3cc(Cl)cc(NC(=O)c4cncnc4)c3)cc2C(F)(F)F)CC1 [LSW-03-072]	330 ± 27.4	
CCN1CCN(Cc2ccc(NC(=O)c3cc(Cl)cc(NC(=O)c4cncc(-c5ccc(C#N)cc5)c4)c3)cc2C(F)(F)F)CC1 [LSW-03-077]	43.8 ± 7.9	
CCN1CCN(Cc2ccc(NC(=O)c3cc(Cl)cc(NC(=O)N4CCN(C)CC4)c3)cc2C(F)(F)F)CC1 [LSW-03-080]		EC50 [3, 6]: 2120 nM
O=C(Nc1ccnc(N2CCOCC2)c1)c1cc(Cl)cc(NC(=O)c2cncc(-c3cccs3)c2)c1 [LSW-03-081]	732 ± 124	
CCN1CCN(Cc2ccc(NC(=O)c3cc(NC(=O)c4cncc(-c5cccs5)c4)cc(OC)c3)cc2C(F)(F)F)CC1 [TL5-134]		EC50 [3, 7]: 341 nM
CCN1CCN(Cc2ccc(NC(=O)c3cncc(NC(=O)c4cncc(-c5cccs5)c4)c3)cc2C(F)(F)F)CC1 [TL5-139]		EC50 [3, 7]: 191 nM
CCN1CCN(Cc2ccc(NC(=O)c3ccnc(NC(=O)c4cncc(-c5cccs5)c4)c3)cc2C(F)(F)F)CC1 [TL5-145]		EC50 [3, 7]: 391 nM
C[C@H]1[C@@H](O)O[C@@H]2O[C@@]3(C)CC[C@H]4[C@H](C)CC[C@@H]1[C@@]24OO3 [dihydroartemisinin (DHA), dihydroartemisinin, reference compound]		Killing profile [4]: pronounced irreversible killing
